Data published in US8975259B2, “Compositions and methods for inhibiting G protein signaling” (University of Rochester, priority 2007, dated 2015).
“Also recorded” adds a separate entry of the source. Read-outs that look alike come from different tables or passages of the source. No end group written: not given here.

Key:
[1] = system: fMLP-dependent Ca2+ release in differentiated HL60 cells; assay: fMLP-dependent Ca2+ release in fura-2 loaded DMSO-differentiated HL60 cells; assay type: cell-based, human; conditions: 10 μM compound, 250 nM fMLP; result in words
Experimental: (§1) Cells were pretreated with DMSO or 10 μM compounds for 5 min prior to stimulation with 250 nM fMLP. […] Normalized peak Ca^2+ responses were pooled from three independent experiments each (mean±SEM). Cells were pretreated with DMSO (▪) or compounds (▴) for 5 min prior to stimulation. FIG. 5C is the same as A except 10 μM M201 was tested. […] Differentiated HL60 cells were treated with 10 μM compound prior to stimulation with 250 nM fMLP. Translocation of endogenous GRK2 was determined by Western blotting with a GRK2 antibody and quantitative chemiluminescence. Data are mean±SEM from 5 experiments, * P<0.05, **P<0.01 ANOVA. […] Differentiated HL60 cells stably over-expressing GFP-PHAkt were treated with 10 μM compound prior to stimulation with 100 nM fMLP. Translocation of GFP-PHAkt to the membrane was determined by Western blotting with an anti-GFP antibody and quantitative chemiluminescence. Data are mean±SEM from 4 experiments. *** P<0.001 ANOVA. […] Differentiated HL60 cells were pretreated with 10 μM of compound prior to stimulation with 1 μM fMLP for 5 min. Levels of phosphorylated and total ERK were determined by Western blotting.
Ca^2+ fluxes were measured using two 35 mL cultures of differentiated HL-60 neutrophil cultures (0.2×10^6 cells/mL). Cells were cultured for three days with in DMSO
(1.2%), washed in HSS and resuspended in 2 mL HBSS at a concentration of 7×10^s cells/mL. Addition of DMSO to the growth medium induces differentiation of these cells into morphologically and functionally mature neutrophils
(Collins, et al. (1978) Proc. Natl. Acad. Sci. USA 75:2458; Collins, et al. (1979) J. Exp. Med. 149:969). Neutrophils were preloaded with fura-2 (1 μM), a fluorescent Ca^2+-sensitive indicator (Suh, et al. (1996) J. Biol. Chem. 271:32753), for 45 minutes, washed with HBSS and resuspended in 2 mL of indicator-free HBSS. An 140 μL aliquote of cells was added to a total of 2 mL HBSS. Fluorescence ratios were taken by dual excitation at 340 and 380 nm and emission at 510 nm. After a stable baseline was established, either DMSO or NSC119910 was added and incubated for 5 minutes. […]

[2] = system: ERK1 and ERK2 activation in differentiated HL60 cells; assay: fMLP-induced ERK1 and ERK2 activation in differentiated HL60 cells; assay type: cell-based, human; conditions: 10 μM compound, 1 μM fMLP; result in words
Experimental: as §1

PLCβ2 = assay: Gβ1γ2-dependent activation of purified PLCβ2; assay type: biochemical
Experimental: (§2) Purified PLCβ2 (0.25 ng) was assayed in the presence (▴) or absence (▪) of 100 nM purified Gβ1γ2. […] Assays contained 10 ng of purified p101/p110 PI3Kγ heterodimer with or without 100 nM purified Gβ1γ2. Left panel: (▴) 100 nM Gβ1γ2 or (▪) no βγ. […] M119 or M201 and 25 nM purified GRK2 were added simultaneously to 250 nM biotinylated Gβ1γ2 (bGβ1γ2) immobilized on streptavidin agarose. GRK2 was detected with antibody to GRK2. Data are representative (mean ±SEM, except D) repeated at least three times each. […] 30 nM bGβ1γ2 was incubated with either 30 nM PLCβ2 or PLCβ3 in the presence or absence of M119 or M201 for 16 h at 4° C. before precipitation with avidin agarose and detection with PLCβ2,or Gβ antibodies. […] Same as 4E with PLCβ3.
(§3) The ability of NSC119910 analogs to selectively modulate activation PLC-β2 and -β3 was analyzed. In this assay, PLC-β2 and PLC-β3 were purified and PLC enzymatic activity was measured in the presence or absence of purified βy and in the presence or absence of analog.
(§4) Nevertheless, M119 and M201 were tested in in vitro reconstitution assays of Gβγ-dependent activation of PLCβ2, PLCβ3 and PI3Kγ and binding to GRK2. […] These are only two of multiple diverse compounds identified, indicating potential for multiple modes of Gβγ-dependent target modulation by these small molecules.

PLCβ3 = assay: Gβ1γ2-dependent activation of purified PLCβ3; assay type: biochemical; set-up: key to PLCb3: NE = No effect; conditions: Table 19, effector IC50
Experimental: as §2, §3, §4

PI3Kγ = assay: Gβ1γ2-dependent activation of purified p101/p110 PI3Kγ; assay type: biochemical; conditions: Table 19, effector IC50; read-out: PI 3-Kg
Experimental: as §2, §4

Gβ1γ2 = Gβ1γ2 (UniProt P54311+P63212); assay: Competition phage ELISA: inhibition of SIGK-phage binding to immobilized biotinylated Gβ1γ2; set-up: made in house; host or cells: Sf9 insect cells (baculovirus; co-expressed with BirA and (His)6-Gαi1, from which βγ was eluted); species or system rat
Experimental: Phage ELISA assays used to assess peptide binding to wild-type and mutant b-βγ were performed according to standard methods (Smrcka and Scott (2002) Methods Enzymol. 344:557-76). Briefly, 1 μg streptavidin was immobilized in the well of a […] overnight at 4° C. The wells were blocked with 100 μL of 2% bovine serum albumin (BSA) in Tris-buffered saline (TBS) for 1 hour at 4° C. followed by three washes of IX TBS/0.5% TWEEN®. […] The wells were washed, followed by the addition of IxIO^6 to IxIO^10 phage particles and incubated at 4° C. for 3 hours. The wells were then washed six times with TBS/0.5% TWEEN® followed by addition of 40 μL of 1:5000 dilution of anti-M13 antibody (Pharmacia, Uppsala, Sweden) and incubated at room temperature for 1 hour. The wells were washed, followed by the addition of 40 μL of (2,2′-Azino-bis (3-ethylbenzthiazoline)-6-sulfonic acid (ABTS) and the colorimetric reaction was monitored at 405 nm. Nonspecific binding was subtracted for each reading.
A phage ELISA assay was used to determine whether small molecules identified in the computational screen could interact with the Gβy protein interaction surface. […] The screen was based on a reduction in the optical density (OD) of wells containing Gβγ subunits and phage. […] Three background wells contained no βy subunits.
As disclosed herein, biotinylated Gβy subunits were immobilized on the surface of a 96-well plate coated with streptavidin, phage displaying Gβγ-binding peptides were subsequently added and binding in the presence and absence of test compounds detected with an anti-phage antibody.
The phage ELISA assay was used to rapidly screen the ability of compounds to bind to the protein interaction “hot spot” based on the method of Scott et. al (Scott et al., 2001). This assay is performed in the presence of detergent (0.5% Tween) to eliminate non-specific compound aggregation artifacts.
Compounds/DMSO and 0.1×10^10 phage were added simultaneously and subsequently incubated for 1 h at room temperature. Plates were then washed with 1× Tris-buffered saline/0.5% Tween 20 and incubated with anti-M13, HRP-conjugated antibody (Amersham, Chalfont St. Giles, Buckinghamshire, UK). Phage binding was determined by monitoring A405 upon addition of 2,2′-azino-bis(3-ethylbenzothiazoline-6-sulfonic acid) (Sigma Aldrich).

[3] = system: opioid-induced antinociception in mice; assay: 55° C. warm-water tail-flick antinociception; assay type: in vivo, mouse; conditions: i.c.v., 20 min, 55° C. tail-flick; 95% CL in parentheses
[4] = system: human μ opioid receptor (hMOR-CHO cells); assay: Total inositol phosphate assay in hMOR-CHO cells; assay type: cell-based
Experimental: Chinese hamster ovary (CHO) cells stably expressing either the human κ (hKOR-CHO), δ (hDOR-CHO)(L. Toll, Stanford Research Institute, Palo Alto, Calif.) or μ (hMOR-CHO)(G. Uhl, National Institute on Drug Abuse, Baltimore, Md.) opioid receptor were used in the experiments. Cells in 6-well plates were labeled by adding 4 μCi of [^3H]inositol for 24 hr in inositol-free F-10 media, without serum. After labeling, LiCl was added directly to the labeling media at a final concentration of 10 mM. Ligands or peptides were added at the same time. The final volume of each well was 1 mL. The plates were put back in to the incubator at 37° C. for 30 min after which time the medium was aspirated and the plates were washed twice with 1× PBS. Ice-cold 50 mM formic acid, 1 mL, was added to the plates which were placed in the cold room at 4° C. for 30 min. After the incubation, the contents of the plates were applied to Dowex AG1-X8 columns and allowed to flow all the way through the column. The columns were washed, twice each, with 50 and 100 mM formic acid, for a total of four washes, followed by elution of the IP-containing fraction with 3 mL of 1.2 M ammonium formate/0.1 M formic acid. The eluted fraction was mixed with Scintisafe scintillation fluid, for high salt, and counted. The data are represented as the fold increase over control in total inositol phospates. All experiments were repeated three times and performed in duplicate. Control cells for each experiment were labeled with [^3H]inositol and LiCl, in the same manner as the treatment groups.

Fαi1GDPβ1γ2 heterotrimer = target: T1, Fαi1GDPβ1γ2 heterotrimer (UniProt P54311+P63212); assay: Dissociation of Fαi1 from preformed Fαi1β1γ2 heterotrimer (flow cytometry); assay type: binding; conditions: result in words
T1 construct: made in house; host or cells: b-βγ: Sf9 insect cells

[5] = system: carrageenan-induced paw edema in mice; assay: Carrageenan-induced paw edema and neutrophil abundance
Gαi1-Gβ1γ2 interaction = target: T2, Gαi1-Gβ1γ2 interaction (UniProt P54311+P63212); assay: Flow cytometry competition for FITC-Gαi1 binding to immobilized b-Gβ1γ2; conditions: peptides; read-out: IC50 for competition with Gαi binding to Gβ1γ2
T2 construct: made in house; host or cells: b-βγ: Sf9 insect cells
Experimental: (2003) supra; Sarvazyan, et al. (1998) J. Biol. […] Fluorescein-labeled Ga^ (Fan) was prepared in accordance with standard methods (Sarvazyan, et al. (1998) supra). Assays were used to determine peptide effects on Gα-Gβγ interactions included competition and dissociation assays (Ghosh, et al. (2003) supra). […] The bead-associated fluorescence was then recorded in a BD Biosciences […] flow cytometer. Data was corrected for background fluorescence and fit with a sigmoid dose response curve using Graph Pad Prism 4. To measure dissociation of Fan from b-Gβaγ2, 100 pM of Fa^ was incubated with 50 pM immobilized b-Gβ1γ2 at room temperature for 15-20 minutes.

O=C(O)c1cccc2cccc(-c3c4ccc(=O)c(O)c-4oc4c(O)c(O)ccc34)c12 [Compound M119K]
effect on fMLP-induced Ca^2+ increase [1]: block | effect on fMLP-induced activation of ERK1 and ERK2 [2]: without interfering

O=C1c2ccccc2C(=O)c2c(Nc3cc4c5c(ccc6c7ccc8c9c(cc(Nc%10cccc%11c%10C(=O)c%10ccccc%10C%11=O)c(c3c56)c97)-c3ccccc3C8=O)C(=O)c3ccccc3-4)cccc21 [Compound M231]
IC50 (PLCβ2; Table 19, effector IC50, read-out: PLCb2): 167 µM | PLCb3 (PLCβ3): NE | IC50 (PI3Kγ): 13.5 µM | IC50 (Gβ1γ2; Table 8, read-out: IC50): 16 µM | IC50 (Gβ1γ2; Table 18, compounds identified in Elisa screen, read-out: IC50): 16 µM | IC50 (Gβ1γ2; Table 19, read-out: ELISA): 27 µM

C[C@@H](NC(=O)[C@@H](N)Cc1ccc(O)cc1)C(=O)NCC(=O)N(C)[C@@H](Cc1ccccc1)C(=O)NCCO [DAMGO, [D-Ala^2, N-Me-Phe^4, Gly^5-ol]-enkephalin]
ED50 of opioid agonist alone [3]: 0.07 nmol | increase in total IP compared to control [4]: 4 fold

C[C@H](NC(=O)[C@H](CS)NC(=O)[C@@H](N)CO)C(=O)N[C@@H](CCCNC(=N)N)C(=O)N[C@@H](Cc1ccccc1)C(=O)N[C@@H](Cc1ccccc1)C(=O)NCC(=O)N[C@H](C(=O)N1CCC[C@H]1C(=O)NCC(=O)N[C@@H](CS)C(=O)N[C@H](C(=O)O)[C@@H](C)O)[C@@H](C)O [SCAR]
promotion/acceleration of heterotrimer dissociation (Fαi1GDPβ1γ2 heterotrimer): could not promote dissociation of a preformed heterotrimer; also recorded: the same as the intrinsic rate

CC[C@H](C)[C@H](NC(=O)[C@H](CC(N)=O)NC(=O)[C@H](CC(C)C)NC(=O)[C@H](C)NC(=O)[C@H](C)NC(=O)[C@H](CCCNC(=N)N)NC(=O)[C@@H](NC(=O)[C@@H](N)CO)[C@@H](C)CC)C(=O)N[C@@H](CC(C)C)C(=O)NCC(=O)N[C@@H](Cc1ccc(O)cc1)C(=O)N1CCC[C@H]1C(=O)N[C@@H](CC(=O)O)C(=O)N[C@@H](Cc1ccc(O)cc1)C(=O)N[C@@H](CC(=O)O)C(=O)O [SIRK(Lys4Ala)]
promotion/acceleration of heterotrimer dissociation (Fαi1GDPβ1γ2 heterotrimer): failed to accelerate heterotrimer dissociation

Nc1ccc(Nc2cc(S(=O)(=O)O)c(N)c3c2C(=O)c2ccccc2C3=O)cc1 [drawing 55]
IC50 (PLCβ2; Table 3, read-out: PLCβ2 IC50): 75 µM

Nc1cccc(Nc2cc(S(=O)(=O)O)c(N)c3c2C(=O)c2ccccc2C3=O)c1 [drawing 56]
IC50 (PLCβ2; Table 3, read-out: PLCβ2 IC50): 14 µM

Nc1ccc(-c2ccc(Nc3cc(S(=O)(=O)O)c(N)c4c3C(=O)c3ccccc3C4=O)cc2)c(S(=O)(=O)O)c1 [drawing 57]
IC50 (PLCβ2; Table 3, read-out: PLCβ2 IC50): > 30 µM

COc1ccc2c(c1)c(CC(=O)O)c(C)n2C(=O)c1ccc(Cl)cc1 [indomethacin]
effect on carrageenan-induced paw edema ([5]; i.p. 1 h before carrageenan, gallein 100 mg/kg, indomethacin 2.5 mg/kg, result in words): sharply reduced | reduction of exudate volume ([5]; i.p. pretreatment, 2 h after carrageenan): approximately 75%

COC(=O)/C=C/C(=O)N[C@@H]1CC[C@@]2(O)[C@H]3Cc4ccc(O)c5c4[C@@]2(CCN3CC2CC2)[C@H]1O5 [β-FNA, β-funaltrexamine]
effect on DAMGO- and morphine-dependent IP production [4]: attenuated

SIRKALNILAYPDYD [SIRK(GIyIOAIa)]
IC50 (Gαi1-Gβ1γ2 interaction): ~80 µM | promotion/acceleration of heterotrimer dissociation (Fαi1GDPβ1γ2 heterotrimer): could still accelerate heterotrimer dissociation
